{"source": "paper PMC4696656", "about": "“Insights into the Mechanism of Action of Bactericidal Lipophosphonoxins” (PLoS ONE, 2015)", "test": "Stability at different pH (LC-MS)", "format": "physicochemical", "conditions": "pH 0.18, 5.00 and 8.80; 50 μM and 500 μM; room temperature and 37°C; 24 hours", "procedure": "Stability experiments were carried out at two concentrations and three pH values. Concentrations were 500 μmol/l (50 μl of 10 mM stock solution were dissolved in buffers of specific pH to a final volume of 1 ml) and 50 μmol/l (10 μl of stock solution were dissolved in buffers of specific pH to a final volume of 2 ml); pH: 0.18 (0.5 M HCl), 5 (0.1M NH4Ac adjusted with acetic acid), and 8.8 (0.1M NH4Ac adjusted with NaOH). The experiments were conducted at room temperature and 37°C, respectively. Samples were injected onto HPLC machine at different time points to assess the levels of decomposition. Time points: 0.5; 1; 3.5; 24 hrs. HPLC analytical parameters: Method: 0–100% B in 5 min, 100% C in 15 min, hold to 20 min. A = 25 mM NH4Ac, B = 25 mM NH4Ac in 50% MeCN, C = MeCN. Column: PFP, 100 x 4.6 mm, 3 um. Injection: 10 μl for 500 μM. Injection: 50 μl for 50 μM. Detection: PDA 210–400 nm; MS TIC 200–800 m/z.", "data": [{"smiles": "CCCCCCCCCCCCCCCCOP(=O)(CCN1C[C@@H](O)[C@H](O)C1)OC[C@H]1O[C@@H](n2ccc(=O)[nH]c2=O)[C@H](O)[C@@H]1O", "note": "(stereo partly shown) [DR5026]", "values": [{"measurement": "stability (decomposition by LC-MS)", "result": "no detectable decomposition"}]}]}
